Results on 18 compounds are retold here after patent publication US9834542B2, “LXR modulators” (BRISTOL-MYERS SQUIBB COMPANY, priority 2013, dated 2017).

Molecules are shown by their SMILES.

The assay addresses T1, LXRβ (Homo sapiens, UniProt P55055).
T1 construct: Co-transfection expression plasmids, comprising full-length LXRα (pCMX-h LXRα[…] or LXRβ (pCMX-hLXRβ)); expressed in transfected cells; host or cells: CV-1 African Green Monkey Kidney Cells
T1 sequence (P55055 1-460): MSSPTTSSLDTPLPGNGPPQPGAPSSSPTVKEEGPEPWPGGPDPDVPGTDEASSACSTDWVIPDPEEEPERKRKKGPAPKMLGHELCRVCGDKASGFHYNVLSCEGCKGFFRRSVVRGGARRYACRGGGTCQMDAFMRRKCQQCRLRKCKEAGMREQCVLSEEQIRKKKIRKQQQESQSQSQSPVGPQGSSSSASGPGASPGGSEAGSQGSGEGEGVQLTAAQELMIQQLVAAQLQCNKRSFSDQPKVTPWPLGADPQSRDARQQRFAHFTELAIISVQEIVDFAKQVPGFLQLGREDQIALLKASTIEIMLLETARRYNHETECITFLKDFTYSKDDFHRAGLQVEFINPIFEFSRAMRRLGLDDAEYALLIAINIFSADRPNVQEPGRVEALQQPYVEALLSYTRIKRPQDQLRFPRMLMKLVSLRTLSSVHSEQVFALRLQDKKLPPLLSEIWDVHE
T1 sequence (P19793 1-462 partner): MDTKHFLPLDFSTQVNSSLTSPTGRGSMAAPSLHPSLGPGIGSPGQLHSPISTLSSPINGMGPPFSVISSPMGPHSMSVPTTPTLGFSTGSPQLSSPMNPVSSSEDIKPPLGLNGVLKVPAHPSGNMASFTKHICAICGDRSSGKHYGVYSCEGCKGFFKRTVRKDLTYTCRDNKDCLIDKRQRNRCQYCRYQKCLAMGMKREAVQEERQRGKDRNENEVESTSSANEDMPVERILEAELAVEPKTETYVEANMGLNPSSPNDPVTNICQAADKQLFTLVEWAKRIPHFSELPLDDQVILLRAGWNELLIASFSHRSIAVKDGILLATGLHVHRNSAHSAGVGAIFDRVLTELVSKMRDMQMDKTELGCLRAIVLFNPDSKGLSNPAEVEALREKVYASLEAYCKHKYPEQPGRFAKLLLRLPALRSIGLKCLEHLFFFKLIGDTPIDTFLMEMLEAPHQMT
Nature of the assay: Co-transfection assay (LXRE luciferase reporter), LXRβ. Type of assay: cell-based. The settings on record: for EC50: CV-1 cells transfected with pCMX-hLXRβ and LXREx1-Tk-Luciferase, 20 hours incubation; for Emax: LXRβ co-transfection, relative to high control 1-(2,4-difluorobenzyl)-2-oxo-6-(4-phenoxyphenyl)-4-(trifluoromethyl)-1,2-dihydropyridine-3-carbonitrile, read-out: % Efficacy. An outline of the steps: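 CV-1 cells transiently co-transfected with full-length human LXRβ (or LXRα), LXREx1-Tk-luciferase reporter and β-galactosidase control; compound added (10 μM final in single-point, 11-point ½-log curves, ≤0.5% DMSO) for 20 h at 37 °C. Luciferase read; EC50 from four-parameter fit, efficacy relative to reference agonist high control.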
For orientation: Reporter assays use an easily measured gene product as a stand-in for the process of interest.

Broadly, the EC50 is the midpoint of the concentration-response curve. A higher EC50 goes with a need for much substance. In the case of `Cc1nc(C(F)(F)F)cn1-c1ccc(-c2cccc(S(=O)(=O)N(C)C)c2)cc1-n1nncc1-c1ccc(OC(F)(F)F)cc1` [Example 214, N,N-dimethyl-4′-(2-methyl-4-(trifluoromethyl)-1H-imidazol-1-yl)-3′-(5-(4-(trifluoromethoxy)phenyl)-1H-1,2,3-triazol-1-yl)-[1,1′-biphenyl]-3-sulfonamide], the EC50 is 0.21 µM and the Emax is 87%.
For the compound `CCS(=O)(=O)c1cccc(-c2ccc(-n3cc(C(F)(F)F)nc3C)c(-n3nncc3-c3ccc(OC(F)(F)F)cc3)c2)c1` [Example 215, 1-(3′-(ethylsulfonyl)-4-(2-methyl-4-(trifluoromethyl)-1H-imidazol-1-yl)-[1,1-biphenyl]-3-yl)-5-(4-(trifluoromethoxy)phenyl)-1H-1,2,3-triazole], the EC50 worked out at 0.334 µM and the Emax turned out to be 86%.
As to `Cc1nc(C(F)(F)F)cn1-c1ccc(-c2cc(F)c(CO)c(S(C)(=O)=O)c2)cc1-n1nncc1-c1ccc2occc2c1` [Example 216, (3′-(5-(benzofuran-5-yl)-1H-1,2,3-triazol-1-yl)-3-fluoro-4′-(2-methyl-4-(trifluoromethyl)-1H-imidazol-1-yl)-5-(methylsulfonyl)-[1,1′-biphenyl]-4-yl)methanol], the EC50 amounted to 0.286 µM and the Emax is 91%.
For `Cc1nc(C(F)(F)F)cn1-c1ccc(-c2cccc(S(C)(=O)=O)c2)cc1-n1nncc1Cc1ccccc1Cl` [Example 219, 5-(2-chlorobenzyl)-1-(4-(2-methyl-4-(trifluoromethyl)-1H-imidazol-1-yl)-3′-(methylsulfonyl)-[1,1′-biphenyl]-3-yl)-1H-1,2,3-triazole] the same measures were 1.52 µM and 44%.
With `Cc1nc(C(F)F)cn1-c1ccc(-c2cc(F)c(CO)c(S(C)(=O)=O)c2)cc1-n1nncc1-c1ccc(OC(F)(F)F)cc1` [Example 220, (4′-(4-(difluoromethyl)-2-methyl-1H-imidazol-1-yl)-3-fluoro-5-(methylsulfonyl)-3′-(5-(4-(trifluoromethoxy)phenyl)-1H-1,2,3-triazol-1-yl)-[1,1′-biphenyl]-4-yl)methanol], a half-maximal effect (EC50) was put at 0.782 µM and the Emax was 102%.
On the same counts, the results for `Cc1nc(C(F)(F)C(C)C)cn1-c1ccc(-c2cc(F)c(CO)c(S(C)(=O)=O)c2)cc1-n1nncc1-c1ccc(OC(F)(F)F)cc1` [Example 221, (4′-(4-(1,1-difluoro-2-methylpropyl)-2-methyl-1H-imidazol-1-yl)-3-fluoro-5-(methylsulfonyl)-3′-(5-(4-(trifluoromethoxy)phenyl)-1H-1,2,3-triazol-1-yl)-[1,1′-biphenyl]-4-yl)methanol] are 0.111 µM and 69%.
With `Cc1nc(C(F)(F)F)cn1-c1ccc(-c2cccc(S(C)(=O)=O)c2)cc1-n1nncc1C(C)(C)c1ccc(Cl)cc1` [Example 222, 5-(2-(4-chlorophenyl)propan-2-yl)-1-(4-(2-methyl-4-(trifluoromethyl)-1H-imidazol-1-yl)-3′-(methylsulfonyl)-[1,1′-biphenyl]-3-yl)-1H-1,2,3-triazole], the EC50 was 1.85 µM and the Emax is 43%.
For `Cc1nc(C(F)(F)F)cn1-c1ccc(-c2cc(F)c(CO)c(S(C)(=O)=O)c2)cc1-n1nncc1C(C)(C)c1ccc(Cl)cc1` [Example 223, (3′-(5-(2-(4-chlorophenyl)propan-2-yl)-1H-1,2,3-triazol-1-yl)-3-fluoro-4′-(2-methyl-4-(trifluoromethyl)-1H-imidazol-1-yl)-5-(methylsulfonyl)-[1,1′-biphenyl]-4-yl)methanol] the same measures were 1.77 µM and 63%.
`Cc1nc(C(F)(F)F)cn1-c1ccc(-c2cccc(S(C)(=O)=O)c2)cc1-n1nncc1C(C)(F)c1ccc(Cl)cc1` (stereo not drawn) [Example 224, 5-(1-(4-chlorophenyl)-1-fluoroethyl)-1-(4-(2-methyl-4-(trifluoromethyl)-1H-imidazol-1-yl)-3′-(methylsulfonyl)-[1,1′-biphenyl]-3-yl)-1H-1,2,3-triazole]: the EC50 is 0.411 µM and the Emax was found to be 57%.
For `CS(=O)(=O)c1cccc(-c2ccc(-n3cc(C(F)(F)F)nc3C(F)F)c(-n3nncc3-c3ccc(Cl)cc3)c2)c1` [Example 225, 5-(4-chlorophenyl)-1-(4-(2-(difluoromethyl)-4-(trifluoromethyl)-1H-imidazol-1-yl)-3′-(methylsulfonyl)-[1,1′-biphenyl]-3-yl)-1H-1,2,3-triazole] the same measures were 1.1 µM and 91%.
On the same counts, the results for `CS(=O)(=O)c1cccc(-c2ccc(-n3cc(C(F)(F)F)nc3C(F)F)c(-n3nncc3-c3ccc(OC(F)(F)F)cc3)c2)c1` [Example 226, 1-(4-(2-(difluoromethyl)-4-(trifluoromethyl)-1H-imidazol-1-yl)-3′-(methylsulfonyl)-[1,1′-biphenyl]-3-yl)-5-(4-(trifluoromethoxy)phenyl)-1H-1,2,3-triazole] are 0.677 µM and 92%.
For `CCc1nc(C(F)(F)F)cn1-c1ccc(-c2cccc(S(C)(=O)=O)c2)cc1-n1nncc1-c1ccc(OC(F)(F)F)cc1` [Example 227, 1-(4-(2-ethyl-4-(trifluoromethyl)-1H-imidazol-1-yl)-3′-(methylsulfonyl)-[1,1′-biphenyl]-3-yl)-5-(4-(trifluoromethoxy)phenyl)-1H-1,2,3-triazole] the same measures were 0.865 µM and 118%.
Consider `Cc1nc(C2CC2)cn1-c1ccc(-c2cccc(S(C)(=O)=O)c2)cc1-n1nncc1-c1ccc(Cl)cc1` [Example 228, 5-(4-chlorophenyl)-1-(4-(4-cyclopropyl-2-methyl-1H-imidazol-1-yl)-3′-(methylsulfonyl)-[1,1′-biphenyl]-3-yl)-1H-1,2,3-triazole], for which the EC50 stood at 2.56 µM and the Emax was determined as 67%.
In the case of `Cc1nc(C2CC2)cn1-c1ccc(-c2cccc(S(C)(=O)=O)c2)cc1-n1nncc1-c1ccc(OC(F)(F)F)cc1` [Example 229, 1-(4-(4-cyclopropyl-2-methyl-1H-imidazol-1-yl)-3′-(methylsulfonyl)-[1,1′-biphenyl]-3-yl)-5-(4-(trifluoromethoxy)phenyl)-1H-1,2,3-triazole], it took 0.949 µM to reach a half-maximal effect (EC50) and the Emax amounted to 72%.
For `Cc1nc(C(F)F)c(C)n1-c1ccc(-c2cccc(S(C)(=O)=O)c2)cc1-n1nncc1-c1ccc(Cl)cc1` [Example 230, 5-(4-chlorophenyl)-1-(4-(4-(difluoromethyl)-2,5-dimethyl-1H-imidazol-1-yl)-3′-(methylsulfonyl)-[1,1′-biphenyl]-3-yl)-1H-1,2,3-triazole] the same measures were 2.05 µM and 24%.
`Cc1nc(C(F)F)c(C)n1-c1ccc(-c2cc(F)c(CO)c(S(C)(=O)=O)c2)cc1-n1nncc1-c1ccc(Cl)cc1` [Example 231, (3′-(5-(4-chlorophenyl)-1H-1,2,3-triazol-1-yl)-4′-(4-(difluoromethyl)-2,5-dimethyl-1H-imidazol-1-yl)-3-fluoro-5-(methylsulfonyl)-[1,1′-biphenyl]-4-yl)methanol]: the response was half-maximal at 1.68 µM (EC50) and the Emax was 37%.
Consider `Cc1nc(C(F)F)c(C)n1-c1ccc(-c2cccc(S(C)(=O)=O)c2)cc1-n1nncc1-c1ccc(OC(F)(F)F)cc1` [Example 232, 1-(4-(4-(difluoromethyl)-2,5-dimethyl-1H-imidazol-1-yl)-3′-(methylsulfonyl)-[1,1′-biphenyl]-3-yl)-5-(4-(trifluoromethoxy)phenyl)-1H-1,2,3-triazole], for which the 50% effective concentration (EC50) amounted to 1.97 µM and the Emax turned out to be 74%.
With `Cc1nc(C(F)F)c(C)n1-c1ccc(-c2cc(F)c(CO)c(S(C)(=O)=O)c2)cc1-n1nncc1-c1ccc(OC(F)(F)F)cc1` [Example 233, (4′-(4-(difluoromethyl)-2,5-dimethyl-1H-imidazol-1-yl)-3-fluoro-5-(methylsulfonyl)-3′-(5-(4-(trifluoromethoxy)phenyl)-1H-1,2,3-triazol-1-yl)-[1,1′-biphenyl]-4-yl)methanol], a half-maximal effect (EC50) was put at 1.34 µM and the Emax was 92%.
